Experiment [1] deals with T1, KAT8 (lysine acetyltransferase 8) (Homo sapiens, UniProt Q9H7Z6).
T1 sequence (Q9H7Z6 2-458): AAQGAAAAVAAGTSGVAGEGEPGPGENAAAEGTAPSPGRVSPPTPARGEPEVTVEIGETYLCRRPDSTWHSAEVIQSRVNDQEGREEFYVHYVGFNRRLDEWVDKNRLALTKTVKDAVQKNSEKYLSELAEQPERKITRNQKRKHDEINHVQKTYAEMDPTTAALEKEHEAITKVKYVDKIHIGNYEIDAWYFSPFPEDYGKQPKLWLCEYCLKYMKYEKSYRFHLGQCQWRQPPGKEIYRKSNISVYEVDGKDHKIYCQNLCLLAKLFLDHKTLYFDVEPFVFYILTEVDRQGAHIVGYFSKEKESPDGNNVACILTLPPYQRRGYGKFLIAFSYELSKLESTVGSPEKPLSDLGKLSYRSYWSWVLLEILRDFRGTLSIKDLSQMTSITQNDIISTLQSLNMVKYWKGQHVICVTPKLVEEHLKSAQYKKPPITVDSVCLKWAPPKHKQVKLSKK
Kind of experiment: enzyme kinetics, Km app. for Ac-CoA without inhibitor. The format is biochemical. The conditions noted are these: read-out: Ac-CoA / Km app.

The target of experiment [2] is T1, KAT8 (lysine acetyltransferase 8). Nature of the experiment: enzyme kinetics of KAT8 HAT activity, fluorescent detection of CoASH. The class given is biochemical.

Take `CC(=O)SCCNC(=O)CCNC(=O)[C@H](O)C(C)(C)COP(=O)(O)OP(=O)(O)OC[C@H]1O[C@@H](n2cnc3c(N)ncnc32)[C@H](O)[C@@H]1OP(=O)(O)O` [Ac-CoA]: the Km in experiment [1] was 4.1 ± 1.1 µM. For orientation: Ki means the equilibrium dissociation constant of an inhibitor or competing ligand from its target. Take `CCCCCCCc1ccc(CCc2cccc(O)c2C(=O)O)cc1` [MG149]: the Ki in experiment [2] is 39 ± 7.7 µM.

For the origin of these results see publication PMC5447808 (Pulmonary pharmacology & therapeutics, 2017).
